Target: FGFR2 (Homo sapiens, UniProt P21802)
Test: FGFR2 Kinase Protocol - Condition 2 (Reaction Biology HotSpot radiometric kinase assay, no preincubation)
Type: biochemical
Conditions: poly[Glu:Tyr] (4:1) 0.2 mg/ml, ATP 100 microM, 2 hr room temperature
Method in brief: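 Ten-point, 3-fold compound dilutions were tested against wildtype or V564F FGFR2 with 100 µM ATP (33P-labelled), no preincubation, and 0.2 mg/ml poly[Glu:Tyr] (4:1) substrate. After 2 hr at room temperature, incorporation was read on P81 filter paper; IC50 fitted from activity remaining relative to vehicle.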

Sequence of FGFR2 (P21802 22-821): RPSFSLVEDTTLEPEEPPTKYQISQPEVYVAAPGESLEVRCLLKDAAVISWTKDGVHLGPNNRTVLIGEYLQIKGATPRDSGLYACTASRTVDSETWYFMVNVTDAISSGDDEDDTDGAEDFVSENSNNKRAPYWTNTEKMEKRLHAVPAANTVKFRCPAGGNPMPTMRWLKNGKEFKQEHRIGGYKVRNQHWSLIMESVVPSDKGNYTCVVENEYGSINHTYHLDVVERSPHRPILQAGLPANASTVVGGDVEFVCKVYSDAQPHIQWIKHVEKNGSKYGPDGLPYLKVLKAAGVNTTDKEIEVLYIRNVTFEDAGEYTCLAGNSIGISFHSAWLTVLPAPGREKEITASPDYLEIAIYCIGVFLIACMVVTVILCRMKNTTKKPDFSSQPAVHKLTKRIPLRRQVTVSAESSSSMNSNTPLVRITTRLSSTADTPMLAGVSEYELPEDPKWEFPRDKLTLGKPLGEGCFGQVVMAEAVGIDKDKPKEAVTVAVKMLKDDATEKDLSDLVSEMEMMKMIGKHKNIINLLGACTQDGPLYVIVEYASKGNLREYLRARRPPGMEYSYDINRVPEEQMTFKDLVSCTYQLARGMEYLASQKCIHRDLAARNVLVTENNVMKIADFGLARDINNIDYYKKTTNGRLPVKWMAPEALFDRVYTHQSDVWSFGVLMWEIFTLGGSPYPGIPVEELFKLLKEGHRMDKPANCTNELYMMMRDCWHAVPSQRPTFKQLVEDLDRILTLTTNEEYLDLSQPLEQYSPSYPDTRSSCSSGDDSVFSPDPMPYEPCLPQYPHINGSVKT

| IC50 | Compound |
| --- | --- |
| ≤ 100 nM | C=CC(=O)N1C[C@@H](n2nc(C#Cc3c(F)cc4c(ncn4C)c3F)c3c(N)ncnc32)C[C@@H]1COC(F)F [Example 139, 1-[(2R,4S)-4-{4-Amino-3-[2-(4,6-difluoro-1-methyl-1,3-benzodiazol-5-yl)ethynyl]pyrazolo[3,4-d]pyrimidin-1-yl}-2-[(difluoromethoxy)methyl]pyrrolidin-1-yl]prop-2-en-1-one] |
| ≤ 100 nM | C=CC(=O)N1C[C@@H](n2nc(C#Cc3cc4ncn(C)c4c(F)c3F)c3c(N)ncnc32)C[C@@H]1CC#N [Example 158, 2-[(2R,4S)-4-{4-Amino-3-[2-(6,7-difluoro-1-methyl-1,3-benzodiazol-5-yl)ethynyl]pyrazolo[3,4-d]pyrimidin-1-yl}-1-(prop-2-enoyl)pyrrolidin-2-yl]acetonitrile] |
| ≤ 100 nM | C=CC(=O)N1C[C@@H](n2nc(C#Cc3cc4ncn(CC)c4c(F)c3Cl)c3c(N)ncnc32)C[C@@H]1COC [Example 128, 1-[(2R,4S)-4-[4-amino-3-[2-(6-chloro-1-ethyl-7-fluoro-1,3-benzodiazol-5-yl)ethynyl]pyrazolo[3,4-d]pyrimidin-1-yl]-2-(methoxymethyl)pyrrolidin-1-yl]prop-2-en-1-one] |
| ≤ 100 nM | C=CC(=O)N1C[C@@H](n2nc(C#Cc3cc4ncn(C5CC5)c4cc3F)c3c(N)ncnc32)C[C@@H]1COC(F)F [Example 196, 1-((2R,4S)-4-(4-Amino-3-((1-cyclopropyl-6-fluoro-1H-benzo[d]imidazol-5-yl)ethynyl)-1H-pyrazolo[3,4-d]pyrimidin-1-yl)-2-((difluoromethoxy)methyl)pyrrolidin-1-yl)prop-2-en-1-one] |
| ≤ 100 nM | C=CC(=O)N1C[C@@H](n2nc(C#Cc3cc4ncn(CC)c4cc3Cl)c3c(N)nccc32)C[C@@H]1C(F)F [Example 183, 1-((2R,4S)-4-(4-amino-3-((6-chloro-1-ethyl-1H-benzo[d]imidazol-5-yl)ethynyl)-1H-pyrazolo[4,3-c]pyridin-1-yl)-2-(difluoromethyl)pyrrolidin-1-yl)prop-2-en-1-one] |
| ≤ 100 nM | C=CC(=O)N1CC[C@H](n2nc(C#Cc3cc4ncn(CC)c4cc3F)c3c(N)nccc32)C1 [Example 150, 1-[(3S)-3-{4-Amino-3-[2-(1-ethyl-6-fluoro-1,3-benzodiazol-5-yl)ethynyl]pyrazolo[4,3-c]pyridin-1-yl}pyrrolidin-1-yl]prop-2-en-1-one] |
| ≤ 100 nM | C=CC(=O)N1C[C@@H](n2nc(C#Cc3cc4ncn(C)c4c(F)c3Cl)c3c(N)nccc32)C[C@@H]1CC#N [Example 174, 2-[(2R,4S)-4-{4-Amino-3-[2-(6-chloro-7-fluoro-1-methyl-1,3-benzodiazol-5-yl)ethynyl]pyrazolo[4,3-c]pyridin-1-yl}-1-(prop-2-enoyl)pyrrolidin-2-yl]acetonitrile] |

Second part, the molecule before the results:

| Compound | IC50 |
| --- | --- |
| C=CC(=O)N1C[C@@H](n2nc(C#Cc3cc4ncn(C)c4cc3F)c3c(N)ncnc32)C[C@@H]1COC(F)(F)F [Example 57, 1-[(2R,4S)-4-[4-Amino-3-[2-(6-fluoro-1-methyl-1,3-benzodiazol-5-yl)ethynyl]pyrazolo[3,4-d]pyrimidin-1-yl]-2-[(trifluoromethoxy)methyl]pyrrolidin-1-yl]prop-2-en-1-one] | ≤ 100 nM |
| C=CC(=O)N1C[C@@H](n2nc(C#Cc3c(F)cc4c(ncn4C4CC4)c3F)c3c(N)nccc32)C[C@@H]1COC [Example 73, 1-[(2R,4S)-4-[4-Amino-3-[2-(1-cyclopropyl-4,6-difluoro-1,3-benzodiazol-5-yl)ethynyl]pyrazolo[4,3-c]pyridin-1-yl]-2-(methoxymethyl)pyrrolidin-1-yl]prop-2-en-1-one; formic acid] | ≤ 100 nM |
| C=CC(=O)N1C[C@@H](n2nc(C#Cc3cc4ncn(C5CC5)c4cc3F)c3c(N)ncnc32)C[C@@H]1COC(F)(F)F [Example 78, 1-((2R,4S)-4-(4-Amino-3-((1-cyclopropyl-6-fluoro-1H-benzo[d]imidazol-5-yl)ethynyl)-1H-pyrazolo[3,4-d]pyrimidin-1-yl)-2-((trifluoromethoxy)methyl)pyrrolidin-1-yl)prop-2-en-1-one] | ≤ 100 nM |
| C=CC(=O)N1C[C@@H](n2nc(C#Cc3cc4ncoc4cc3F)c3c(N)ncnc32)C[C@@H]1COC [Example 119, 1-[(2R,4S)-4-[4-Amino-3-[2-(6-fluoro-1,3-benzoxazol-5-yl)ethynyl]pyrazolo[3,4-d]pyrimidin-1-yl]-2-(methoxymethyl)pyrrolidin-1-yl]prop-2-en-1-one] | ≤ 100 nM |
| C=CC(=O)N1C[C@@H](n2nc(C#Cc3cc4ncn(CC)c4cc3F)c3c(N)ncnc32)C[C@@H]1COC [Example 77, 1-[(2R,4S)-4-[4-Amino-3-[2-(1-ethyl-6-fluoro-1,3-benzodiazol-5-yl)ethynyl]pyrazolo[3,4-d]pyrimidin-1-yl]-2-(methoxymethyl)pyrrolidin-1-yl]prop-2-en-1-one] | ≤ 100 nM |
| C=CC(=O)N1C[C@@H](n2cc(C#Cc3c(Cl)cc4c(ncn4CC)c3F)c3c(N)ncnc32)C[C@@H]1COC [Example 118, 1-1-[(2R,4S)-4-[4-Amino-5-[2-(6-chloro-1-ethyl-4-fluoro-1,3-benzodiazol-5-yl)ethynyl]pyrrolo[2,3-d]pyrimidin-7-yl]-2-(methoxymethyl)pyrrolidin-1-yl]prop-2-en-1-one] | ≤ 100 nM |
| C=CC(=O)N1C[C@@H](n2nc(C#Cc3cc4ncn(C)c4c(F)c3Cl)c3c(N)ncnc32)C[C@@H]1COC [Example 121, 1-[(2R,4S)-4-[4-Amino-3-[2-(6-chloro-7-fluoro-1-methyl-1,3-benzodiazol-5-yl)ethynyl]pyrazolo[3,4-d]pyrimidin-1-yl]-2-(methoxymethyl)pyrrolidin-1-yl]prop-2-en-1-one] | ≤ 100 nM |
| C=CC(=O)N1C[C@@H](n2nc(C#Cc3ccc4nn(CC)cc4c3)c3c(N)nccc32)C[C@@H]1COC [Example 38, 1-[(2R,4S)-4-[4-amino-3-[2-(2-ethylindazol-5-yl)ethynyl]pyrazolo[4,3-c]pyridin-1-yl]-2-(methoxymethyl)pyrrolidin-1-yl]prop-2-en-1-one] | 1000 to 10000 nM |
| C=CC(=O)N1C[C@@H](n2cc(C#Cc3c(F)cc4[nH]c(C)nc4c3F)c3c(N)ncnc32)C[C@@H]1COC [Example 107, 1-[(2R,4S)-4-[4-Amino-5-[2-(4,6-difluoro-2-methyl-1H-1,3-benzodiazol-5-yl)ethynyl]pyrrolo[2,3-d]pyrimidin-7-yl]-2-(methoxymethyl)pyrrolidin-1-yl]prop-2-en-1-one] | ≤ 100 nM |
| C=CC(=O)N1C[C@@H](n2nc(C#Cc3ccc4c(c3)nc(C(F)(F)F)n4C)c3c(N)nccc32)C[C@@H]1COC [Example 47, 1-((2R,4S)-4-(4-amino-3-((1-methyl-2-(trifluoromethyl)-1H-benzo[d]imidazol-5-yl)ethynyl)-1H-pyrazolo[4,3-c]pyridin-1-yl)-2-(methoxymethyl)pyrrolidin-1-yl)prop-2-en-1-one] | ≤ 100 nM |
| C=CC(=O)N1C[C@@H](n2nc(C#Cc3cc4nc(C)n(C)c4c(F)c3F)c3c(N)ncnc32)C[C@@H]1COC [Example 122, 1-[(2R,4S)-4-[4-Amino-3-[2-(6,7-difluoro-1,2-dimethyl-1,3-benzodiazol-5-yl)ethynyl]pyrazolo[3,4-d]pyrimidin-1-yl]-2-(methoxymethyl)pyrrolidin-1-yl]prop-2-en-1-one] | ≤ 100 nM |

Reference: patent US20230374015A1, “INHIBITORS OF FIBROBLAST GROWTH FACTOR RECEPTOR KINASES” (Kinnate Biopharma Inc., priority 2020, published 2023)
